Measured values taken from the supplement of paper PMC6965134.

Experiment: TIMS collisional cross section (CCS, N2) of the lipid ion; higher = larger ion cross section
Settings: ionization mode: positive, one isomer drawn

Compound	TIMS collisional cross section (sample type: Liver)	TIMS collisional cross section (sample type: plasma)	TIMS collisional cross section (sample type: HeLa)
CCCCC/C=C\C/C=C\C/C=C\C/C=C\CCCCCC(=O)OC[C@@H](COC(=O)CCCCCCCCCCCCCCC)OC(=O)CCCCCCC/C=C\C/C=C\CCCCC [TG 16:0_18:2_22:4] (ion (formula + adduct): [C59H102O6+NH4] 1+)	328 Å²	327.9 Å²	–
CC/C=C\C/C=C\C/C=C\C/C=C\C/C=C\C/C=C\CCC(=O)OC[C@@H](COC(=O)CCCCCCCCCCCCCCC)OC(=O)CCCCCCC/C=C\C/C=C\CCCCC [TG 16:0_18:2_22:6] (ion (formula + adduct): [C59H98O6+NH4] 1+)	325.3 Å²	–	–
CC/C=C\C/C=C\C/C=C\C/C=C\C/C=C\C/C=C\CCC(=O)OC[C@@H](COC(=O)CCCCCCCCCCCCCCC)OC(=O)CCCC/C=C\C/C=C\C/C=C\C/C=C\CC [TG 16:0_18:4_22:6] (ion (formula + adduct): [C59H94O6+NH4] 1+)	322.1 Å²	–	–
CCCCCCCCCCCCCCCCCCCCCC(=O)OC[C@@H](COC(=O)CCCCCCCCCCCCCCC)OC(=O)CCCCCCCCCCCCCCCCCC [TG 16:0_19:0_22:0] (ion (formula + adduct): [C60H116O6+NH4] 1+)	340.8 Å²	340.7 Å²	341.2 Å²
CC/C=C\C/C=C\C/C=C\C/C=C\C/C=C\CCCCCC(=O)OC[C@@H](COC(=O)CCCCCCCCCCCCCCC)OC(=O)CCCCCCC/C=C\CCCCCCCCC [TG 16:0_19:1_22:5] (ion (formula + adduct): [C60H104O6+NH4] 1+)	–	–	331.2 Å²
CCCCC/C=C\C/C=C\C/C=C\C/C=C\CCCC(=O)OC[C@@H](COC(=O)CCCCCCCCCCCCCCC)OC(=O)CCCCCCCCCCCCCCCCCCC [TG 16:0_20:0_20:4] (ion (formula + adduct): [C59H106O6+NH4] 1+)	332.3 Å²	–	–
CCCCCCCCCCCCCCCCCCCCC(=O)OC[C@@H](COC(=O)CCCCCCCCCCCCCCC)OC(=O)CCCCCCCCCCCCCCCCCCC [TG 16:0_20:0_21:0] (ion (formula + adduct): [C60H116O6+NH4] 1+)	–	–	339.7 Å²
CCCCCCCCCCCCCCCCCCCCCC(=O)OC[C@@H](COC(=O)CCCCCCCCCCCCCCC)OC(=O)CCCCCCCCCCCCCCCCCCC [TG 16:0_20:0_22:0] (ion (formula + adduct): [C61H118O6+NH4] 1+)	–	343.5 Å²	344.3 Å²
CCCCC/C=C\C/C=C\C/C=C\CCCCCCCCC(=O)OC[C@@H](COC(=O)CCCCCCCCCCCCCCC)OC(=O)CCCCCCCCCCCCCCCCCCC [TG 16:0_20:0_22:3] (ion (formula + adduct): [C61H112O6+Na] 1+)	–	333.9 Å²	–
CC/C=C\C/C=C\C/C=C\C/C=C\C/C=C\C/C=C\CCC(=O)OC[C@@H](COC(=O)CCCCCCCCCCCCCCC)OC(=O)CCCCCCCCCCCCCCCCCCC [TG 16:0_20:0_22:6] (ion (formula + adduct): [C61H106O6+NH4] 1+)	335.3 Å²	–	–
CC/C=C\C/C=C\C/C=C\C/C=C\C/C=C\C/C=C\CCC(=O)OC[C@@H](COC(=O)CCCCCCCCCCCCCCC)OC(=O)CCCCCC/C=C\C/C=C\C/C=C\CCCCC [TG 16:0_20:3_22:6] (ion (formula + adduct): [C61H100O6+NH4] 1+)	329.3 Å²	–	329.4 Å²
CCCCC/C=C\C/C=C\C/C=C\C/C=C\CCCC(=O)O[C@H](COC(=O)CCCCCCCCCCCCCCC)COC(=O)CCCCCCCCCCCCCCCCCCCCC [TG 16:0_20:4_22:0] (ion (formula + adduct): [C61H110O6+NH4] 1+)	338.2 Å²	–	–
CCCCCCCCCCCCCCCCCCCCCC(=O)OC[C@@H](COC(=O)CCCCCCCCCCCCCCC)OC(=O)CCCCCCCCCCCCCCCCCCCC [TG 16:0_21:0_22:0] (ion (formula + adduct): [C62H120O6+NH4] 1+)	–	346 Å²	346.3 Å²
CCCCC/C=C\C/C=C\CCCCCCCCCCCC(=O)OC[C@@H](COC(=O)CCCCCCCCCCCCCCC)OC(=O)CCCCCCCCCCCCCCCCCCCC [TG 16:0_21:0_22:2] (ion (formula + adduct): [C62H116O6+NH4] 1+)	–	342.3 Å²	–
CC/C=C\C/C=C\C/C=C\C/C=C\C/C=C\C/C=C\CCC(=O)OC[C@@H](COC(=O)CCCCCCCCCCCCCCC)OC(=O)CCCCCCCCCCCCCCCCCCCCC [TG 16:0_22:0_22:6] (ion (formula + adduct): [C63H110O6+NH4] 1+)	340.7 Å²	–	–
CC/C=C\C/C=C\C/C=C\C/C=C\C/C=C\C/C=C\CCC(=O)OC[C@@H](COC(=O)CCCCCCCCCCCCCCC)OC(=O)CCCCC/C=C\C/C=C\C/C=C\C/C=C\C/C=C\CC [TG 16:0_22:5_22:6] (ion (formula + adduct): [C63H100O6+NH4] 1+)	–	–	332.8 Å²
CC/C=C\C/C=C\C/C=C\C/C=C\C/C=C\C/C=C\CCC(=O)OC[C@@H](COC(=O)CCCCCCCCCCCCCCC)OC(=O)CC/C=C\C/C=C\C/C=C\C/C=C\C/C=C\C/C=C\CC [TG 16:0_22:6_22:6] (ion (formula + adduct): [C63H98O6+NH4] 1+)	331.6 Å²	–	–

Compound	TIMS collisional cross section (sample type: Liver)	TIMS collisional cross section (sample type: plasma)	TIMS collisional cross section (sample type: HeLa)
CCCCCC/C=C\CCCCCCCC(=O)OC[C@H](COC(=O)CCCCCCC/C=C\CCCCCCCC)OC(=O)CCCCCCC/C=C\CCCCCC [TG 16:1_16:1_18:1] (ion (formula + adduct): [C53H96O6+NH4] 1+)	–	–	313.4 Å²
CCCCC/C=C\C/C=C\CCCCCCCC(=O)OC[C@@H](COC(=O)CCCCCCC/C=C\CCCCCC)OC(=O)CCCCCCC/C=C\CCCCCC [TG 16:1_16:1_18:2] (ion (formula + adduct): [C53H94O6+NH4] 1+)	310.5 Å²	311.2 Å²	311.9 Å²
CC/C=C\C/C=C\C/C=C\C/C=C\C/C=C\C/C=C\CCC(=O)OC[C@@H](COC(=O)CCCCCCC/C=C\CCCCCC)OC(=O)CCCCCCC/C=C\CCCCCC [TG 16:1_16:1_22:6] (ion (formula + adduct): [C57H94O6+NH4] 1+)	317.3 Å²	–	318.5 Å²
CCCCCC/C=C\CCCCCCCC(=O)OC[C@H](COC(=O)CCCCCCC/C=C\CCCCCCC)OC(=O)CCCCCCCCCCCCCCCC [TG 16:1_17:0_17:1] (ion (formula + adduct): [C53H98O6+NH4] 1+)	–	–	315.7 Å²
CCCCCC/C=C\CCCCCCCC(=O)OC[C@H](COC(=O)CCCCCCCCCCCCCCCCC)OC(=O)CCCCCCCCCCCCCCCC [TG 16:1_17:0_18:0] (ion (formula + adduct): [C54H102O6+NH4] 1+)	–	–	320.7 Å²
CCCCCC/C=C\CCCCCCCC(=O)OC[C@H](COC(=O)CCCCCCC/C=C\CCCCCCC)OC(=O)CCCCCCC/C=C\CCCCCCC [TG 16:1_17:1_17:1] (ion (formula + adduct): [C53H96O6+NH4] 1+)	–	–	314.8 Å²
CCCCCC/C=C\CCCCCCCC(=O)OC[C@H](COC(=O)CCCCCCCCCCCCCCCCC)OC(=O)CCCCCCC/C=C\CCCCCCC [TG 16:1_17:1_18:0] (ion (formula + adduct): [C54H100O6+NH4] 1+)	–	–	318.7 Å²
CCCCCC/C=C\CCCCCCCC(=O)OC[C@H](COC(=O)CCCCCCC/C=C\CCCCCCCC)OC(=O)CCCCCCC/C=C\CCCCCCC [TG 16:1_17:1_18:1] (ion (formula + adduct): [C54H98O6+NH4] 1+)	–	–	316.5 Å²
CCCCC/C=C\C/C=C\CCCCCCCC(=O)OC[C@@H](COC(=O)CCCCCCC/C=C\CCCCCC)OC(=O)CCCCCCC/C=C\CCCCCCC [TG 16:1_17:1_18:2] (ion (formula + adduct): [C54H96O6+NH4] 1+)	313.9 Å²	314.6 Å²	315.1 Å²
CC/C=C\C/C=C\C/C=C\CCCCCCCC(=O)OC[C@@H](COC(=O)CCCCCCC/C=C\CCCCCC)OC(=O)CCCCCCC/C=C\CCCCCCC [TG 16:1_17:1_18:3] (ion (formula + adduct): [C54H94O6+NH4] 1+)	–	–	314.8 Å²
CCCCC/C=C\C/C=C\CCCCCCCC(=O)OC[C@@H](COC(=O)CCCCCCC/C=C\CCCCCC)OC(=O)CCCCCCCCCCCCCCCCC [TG 16:1_18:0_18:2] (ion (formula + adduct): [C55H100O6+NH4] 1+)	319.7 Å²	–	319.7 Å²
CCCCCC/C=C\CCCCCCCC(=O)OC[C@H](COC(=O)CCCCCCCCC/C=C\CCCCCCCC)OC(=O)CCCCCCCCCCCCCCCCC [TG 16:1_18:0_20:1] (ion (formula + adduct): [C57H106O6+NH4] 1+)	328.2 Å²	–	–
CCCCC/C=C\C/C=C\C/C=C\C/C=C\CCCC(=O)OC[C@@H](COC(=O)CCCCCCC/C=C\CCCCCC)OC(=O)CCCCCCCCCCCCCCCCC [TG 16:1_18:0_20:4] (ion (formula + adduct): [C57H100O6+NH4] 1+)	324.7 Å²	–	–
CCCCCC/C=C\CCCCCCCC(=O)OC[C@H](COC(=O)CCCCCCCCCCCCCCCCCCCCC)OC(=O)CCCCCCCCCCCCCCCCC [TG 16:1_18:0_22:0] (ion (formula + adduct): [C59H112O6+NH4] 1+)	–	335.9 Å²	–
CC/C=C\C/C=C\C/C=C\C/C=C\C/C=C\C/C=C\CCC(=O)OC[C@@H](COC(=O)CCCCCCC/C=C\CCCCCC)OC(=O)CCCCCCCCCCCCCCCCC [TG 16:1_18:0_22:6] (ion (formula + adduct): [C59H100O6+NH4] 1+)	–	–	327.7 Å²
CCCCCC/C=C\CCCCCCCC(=O)OC[C@H](COC(=O)CCCCCCC/C=C\CCCCCCCC)OC(=O)CCCCCCC/C=C\CCCCCCCC [TG 16:1_18:1_18:1] (ion (formula + adduct): [C55H100O6+NH4] 1+)	–	320.1 Å²	320 Å²
